Measurements from patent publication US7585519B2, “Esters of L-carnitine or alkanoyl L-carnitines useful as cationic lipids for the intracellular delivery of pharmacologically active compounds” (Sigma-Tau Industrie Farmaceutiche Riunite S.p.A., priority 1999, dated 2009).
Several values for one entry are separate records, joined by “and”; a condition that tells them apart may be missing. Equal entries are not always repeated.

What was measured:
M109 cells = test: In-vitro cytotoxicity test (sulforhodamine B, SRB); type: cell-based, murine; settings: for optical density reading at 540 nm (Mean): Table 2.3; for optical density reading at 540 nm (single reading): Table 2.3, listed as DMSO-CPT 83
Description: The toxicity assays were done on HeLa and M109 cells in 96-well plates. On the day after plating, the cells were treated with the molecules being tested for the next 48 hours. The cells were then washed with PBS and left in normal growth conditions for 48 hours. After removal of the growth medium, the cells were incubated on ice with 16% TCA, washed 3 times in H2O, treated for 30 minutes with sulforhodamine B (SRB) in 1% acetic acid, washed 3 times in 1% acetic acid alone, incubated for 20 minutes in TRIS 10 mM pH 10.5 and, lastly, readings were taken at 540 nm. To evaluate the ability of the liposome to transport CPT 83 in vitro in M109 cells the sulforhodamine B test described above was used. In addition, the cytotoxicity of CPT 83 dissolved in dimethyl-sulphoxide (DMSO) was also evaluated as compared to that of the same molecule complexed with the ST 983 liposome. The liposome-CPT 83 complex was used in the cytotoxicity assays at the concentrations indicated in Tables 2.1, 2.2 and […] here below in both the SUV and MLV configurations. The liposome:CPT 83 molar ratio used was 40:1.

[1] = tested on: luciferase gene of pCMVluc plasmid in liver, lung and heart; test: In-vivo plasmid DNA transfection test (luciferase activity in tissues); parameters: species or system Balb/c mice
Description: In the in-vivo experiments, both DOTAP and [2,3-(dioleoyl)propyl]trimethylammonium (DOTMA) were used as reference cationic lipids.
The molar ratios defined in the results refer to nmol concentrations of the respective cationic lipids per […] of DNA.
In the in-vivo transfection experiments, 25 μg of plasmid DNA per animal were used.
The plasmid pCMVluc used in these experiments contained the cDNA of the luciferase gene under the transcriptional control of the cytomegalovirus (CMV) promoter.
Protein luciferase activity in cells and tissues was determined using the Boehringer Mannheim kit (cat no. 1669 893).
The cells were washed 3 times in PBS and then removed from the plate with a scraper in lysis buffer (100 mM potassium phosphate pH 7.8. 1 mM dithiothreitol-DTT) and submitted to three consecutive cycles of freezing and thawing. After centrifuging in 1.5 mL Eppendorf tubes, the supernatant was used for the luminescence test not more than 5 hours after extraction of the proteins. Luminescence emission measurements were done using a luminometer at 562 nm. After a first freezing in liquid N2 followed by fine crushing to obtain a powder, the tissues were resuspended in lysis buffer and incubated for 10-15 min in ice.
The samples were then centrifuged in 2 ml Eppendorf tubes and the supernatant was tested for luciferase activity.
Both DOTAP and DOTMA were used as reference cationic lipids, the transfection capacity of which has been amply characterised and described by Abkenet et al., Proc. Natl. Acad. Sci. USA 1993, 90, 6518. In the in-vivo experiments, various different molar ratios of cationic lipids to plasmid DNA were analysed for the purposes of determining the activity of the cationic lipids and the respective most efficient concentrations for gene transfer. The transfection capability of the various liposomes was evaluated both in vitro and in vivo using the luciferase gene […] contained in the pCMVluc plasmid, the activity of which, in terms of relative luminescence units (RLU) (described previously) made for easy quantification.
In this experiment, the dependence of liver, lung and heart transfection efficiency on the ST 983 liposome:plasmid DNA molar ratio was evaluated. The following nmol ratios of liposome per μg DNA were tested: 12:1, 24:1, 36:1 and 48:1.
Groups of 6 Balb/c mice weighing approximately 20 g were treated intravenously with the above-mentioned amounts of liposome-DNA complex in 200 μl volumes of PBS and were sacrificed 24 hours after administration of the complex.

[2] = tested on: luciferase gene of pCMVluc plasmid in liver, lung and heart; test: as above; parameters: species or system Balb/c mice; settings: molar ratio 12:1
[3] = tested on: murine pulmonary carcinoma M109
Description: To induce the tumour in vivo, unanaesthetised Balb/c mice received injections of 3×10^5 cells of murine pulmonary carcinoma M109 in 0.1 ml RPMI-1640 (Sigma) in the quadriceps femoris of the right rear paw.
Taxol (paclitaxel INDENA) used as a control was dissolved in the cremophor vehicle EL (BASF) at a concentration of 20 mg/mL and stored at +4° C. for the next 24 hours, protected against the light. At the time of use, it was diluted with phosphate-buffered saline solution (PBS, SIGMA) and injected intravenously in the same volume and concentration conditions as described for taxol transported by the ST 983 liposome.
The cremophor was prepared by diluting 1:1 with ethyl alcohol.
Administrations were given for seven consecutive days starting from day 10 after inoculation of the tumour. The animals were kept under observation up to day 17 post-inoculation and sacrificed by cervical dislocation, and their lungs were removed for determination of the number of metastases. Staining of the lungs to detect metastases was done by incubating the lungs for 10 days in 5 ml of Bouin's solution, consisting of 71% saturated picric acid solution, 4.8% glacial acetic acid (Merck), and 24% 10% formaldehyde (Fluka). At the end of the incubation period in Bouin's solution, the numbers of metastases were counted.
Statistical analysis of the data for the number of lung metastases was done using the Mann-Whitney non-parametric tests for unpaired data.

HeLa cells = settings: liposome 9 μM, 2.5 μg plasmid DNA, versus DOTAP, FIGS. 1 and 2
Description: Liposome and plasmid DNA were suitably diluted separately in PBS. The DNA was then added to the liposome and the liposome-DNA complex was left for approximately 30 min at 4° C. to facilitate the formation of a stable liposome-DNA interaction.
In the in-vitro experiments, 1,2-dioleoyloxy-3-trimethyl-ammonium propane (DOTAP) was used as a reference cationic lipid; 2.5 μg of plasmid DNA were used per 2×10^5 HeLa cells, and the liposome concentration was 9 μM.
5 μg of the DNA extracted from the cells were preabsorbed on nylon filters (Boehringer) using the Biorad dot-blot appliance. The filters were then prehybridised for 4 hours at 65° C. with a solution containing 0.5 M of sodium pyrophosphate (NaPi), 1 mM EDTA, 7% SDS. […] The autoradiographic analysis was carried out with the aid of a phosphor imager which uses phosphor screens activated by beta-radiation which are read and quantified by means of a photomultiplier system in conjunction with an image analysis program. […]
As an alternative, the transfection efficiency of a number of cationic liposomes was evaluated by means of densitometric analysis (phosphor imager) of samples of DNA extracted from transfected cells preabsorbed on nitrocellulose filters (dot-blot) and hybridised with ^32P-labelled plasmid DNA markers, as described previously.

[4] = ST 983:DNA molar ratio 24:1, i.v., 24 hours
[5] = ST 983:DNA molar ratio 36:1, i.v., 24 hours
[6] = ST 983:DNA molar ratio 48:1, i.v., 24 hours
[7] = liposome:DNA molar ratio 12:1, i.v., 24 hours
[8] = liposome/DNA preincubation time 30 min.
[9] = liposome/DNA preincubation time 3 h

CC[C@@]1(O)C(=O)OCc2c1cc1n(c2=O)Cc2c-1nc1ccccc1c2C#N [CPT 83, 7-carbonitrile camptothecin]
optical density reading at 540 nm (Mean) (M109 cells; 0.0013 μM): 0.8399 | optical density reading at 540 nm (single reading) (M109 cells; 0.0013 μM): 0.863 and 0.795 and 0.831 and 0.878 and 0.809 and 0.816 and 0.886 and 0.841 | optical density reading at 540 nm (Mean) (M109 cells; 0.013 μM): 0.82 | optical density reading at 540 nm (single reading) (M109 cells; 0.013 μM): 0.851 and 0.79 and 0.806 and 0.81 and 0.8 and 0.804 and 0.863 and 0.836 | optical density reading at 540 nm (Mean) (M109 cells; 0.13 μM): 0.4446 | optical density reading at 540 nm (single reading) (M109 cells; 0.13 μM): 0.474 and 0.467 and 0.429 and 0.421 and 0.406 and 0.407 and 0.57 and 0.383 | optical density reading at 540 nm (Mean) (M109 cells; 1.3 μM): 0.309 | optical density reading at 540 nm (single reading) (M109 cells; 1.3 μM): 0.318 and 0.317 and 0.328 and 0.305 and 0.33 and 0.302 and 0.285 and 0.287 | optical density reading at 540 nm (Mean) (M109 cells; 13 μM): 0.2921 | optical density reading at 540 nm (single reading) (M109 cells; 13 μM): 0.285 and 0.288 and 0.312 and 0.318 and 0.281 and 0.267 and 0.3 and 0.286

CCCCCCCCCCCCCCCC(=O)O[C@H](CC(=O)OCCCCCCCCCCC)C[N+](C)(C)C.[Cl-] [ST 983, palmitoyl L-carnitine chloride undecyl ester]
Mean RLU/mg protein ± s.d. Lung [1, 4]: 2257856 +/− 280480 RLU/mg protein | Mean RLU/mg protein ± s.d. heart [1, 4]: 7091 +/− 249 RLU/mg protein | Mean RLU/mg protein ± s.d. liver [1, 4]: 1310 +/− 385 RLU/mg protein | Mean RLU/mg protein ± s.d. Lung [1, 5]: 301107 +/− 21503 RLU/mg protein | Mean RLU/mg protein ± s.d. heart [1, 5]: 8351 +/− 477 RLU/mg protein | Mean RLU/mg protein ± s.d. liver [1, 5]: 1035 +/− 347 RLU/mg protein | Mean RLU/mg protein ± s.d. Lung [1, 6]: 112747 +/− 5655 RLU/mg protein | Mean RLU/mg protein ± s.d. heart [1, 6]: 5251 +/− 489 RLU/mg protein | Mean RLU/mg protein ± s.d. liver [1, 6]: 1571 +/− 156 RLU/mg protein | share of the total luciferase extracted from lung, heart and liver located in the lungs ([1]; all molar ratios analysed): approximately 99% | Mean RLU/mg protein ± s.d. Lung ([1]; liposome/DNA preincubation time 30 min., molar ratio 12:1): 874882 +/− 65917 RLU/mg protein | Mean RLU/mg protein ± s.d. liver ([1]; liposome/DNA preincubation time 3 h, molar ratio 12:1): 2497 +/− 682 RLU/mg protein | Mean RLU/mg protein ± s.d. Lung [1, 7]: 8818442 +/− 449529 RLU/mg protein | Mean RLU/mg protein ± s.d. heart [1, 7]: 28875 +/− 2593 RLU/mg protein | Mean RLU/mg protein ± s.d. liver [1, 7]: 2589 +/− 140 RLU/mg protein | in-vivo plasmid DNA transport efficiency compared with DOTMA ([1]; lung, molar ratio 12:1): efficiency ratings higher than and/or comparable to those of DOTMA | increase in luciferase activity in the lung and heart, 3 hours versus 30 minutes preincubation ([1]; molar ratio 12:1): approximately 5 fold | Mean RLU/mg protein ± s.d. heart [2, 8]: 8118 +/− 263 RLU/mg protein | Mean RLU/mg protein ± s.d. liver [2, 8]: 3526 +/− 260 RLU/mg protein | Mean RLU/mg protein ± s.d. Lung [2, 9]: 4225656 +/− 211731 RLU/mg protein | Mean RLU/mg protein ± s.d. heart [2, 9]: 37100 +/− 1853 RLU/mg protein

CC(=O)O[C@H]1C(=O)[C@@]2(C)[C@H]([C@H](OC(=O)c3ccccc3)[C@]3(O)C[C@H](OC(=O)[C@H](O)[C@@H](NC(=O)c4ccccc4)c4ccccc4)C(C)=C1C3(C)C)[C@]1(OC(C)=O)CO[C@@H]1C[C@@H]2O [Taxol, paclitaxel]
effect on pulmonary metastases compared to untreated control mice ([3]; M109, Balb/c mice, i.v.): no reducing effect on the number of pulmonary metastases | metastases size ([3]; lung metastases at 17th day after M109 inoculation, BALB/c mice): S (S = small (<1 mm diameter)) | metastases Mean ± s.d ([3]; lung metastases at 17th day after M109 inoculation, BALB/c mice, i.v. for seven consecutive days from day 10): 22 ± 9

ester of propionyl L-carnitine bromide with 2-hydroxy acetyl 1,3 dipalmitoyl glycerol [ST 772]
amounts of plasmid DNA in transfected cells (blot analysis) (HeLa cells): same order of magnitude as obtained with DOTAP
